# Assays:
# [1] = The drug is tested on Bacteroides ovatus strain: ATCC8483 for biotransformation. The drug concentrations were measured before and after a 12-h incubation by liquid-chromatography-coupled mass spectrometry (LC–MS); conditions: 2 µM
# [2] = The drug is tested on Eubacterium hallii strain: DSM3353 for biotransformation. The drug concentrations were measured before and after a 12-h incubation by liquid-chromatography-coupled mass spectrometry (LC–MS); conditions: anaerobutyricum hallii, 2 µM
# [3] = anaerostipes sp., 12 h, 2 µM
# Description: The drug is tested on Anaerostipes sp. strain: fecal isolate for biotransformation. The drug concentrations were measured before and after a 12-h incubation by liquid-chromatography-coupled mass spectrometry (LC–MS)
# [4] = The drug is tested on Clostridium asparagiforme strain: DSM15981 for biotransformation. The drug concentrations were measured before and after a 12-h incubation by liquid-chromatography-coupled mass spectrometry (LC–MS); format: ADME; design: dose 2 uM, timepoint 0 vs 12 hours; conditions: enterocloster asparagiformis, 2 µM
# [5] = The drug is tested on Bacteroides uniformis strain: ATCC8492 for biotransformation. The drug concentrations were measured before and after a 12-h incubation by liquid-chromatography-coupled mass spectrometry (LC–MS); conditions: 2 µM
# [6] = The drug is tested on Bacteroides cellulosilyticus strain: DSM14838 for biotransformation. The drug concentrations were measured before and after a 12-h incubation by liquid-chromatography-coupled mass spectrometry (LC–MS); conditions: 2 µM
# [7] = bacteroides thetaiotaomicron, 12 h, 2 µM
# Description: The drug is tested on Bacteroides thetaiotaomicron strain: VPI-5482 for biotransformation. The drug concentrations were measured before and after a 12-h incubation by liquid-chromatography-coupled mass spectrometry (LC–MS)
# [8] = The drug is tested on Bacteroides vulgatus strain: ATCC8482 for biotransformation. The drug concentrations were measured before and after a 12-h incubation by liquid-chromatography-coupled mass spectrometry (LC–MS); conditions: phocaeicola vulgatus, 2 µM
# [9] = The drug is tested on Providencia rettgeri strain: DSM1131 for biotransformation. The drug concentrations were measured before and after a 12-h incubation by liquid-chromatography-coupled mass spectrometry (LC–MS); format: ADME; design: dose 2 uM, timepoint 0 vs 12 hours; conditions: 2 µM
# [10] = The drug is tested on Eggerthella lenta strain: ATCC25559 for biotransformation. The drug concentrations were measured before and after a 12-h incubation by liquid-chromatography-coupled mass spectrometry (LC–MS); conditions: 2 µM
# [11] = The drug is tested on Ruminococcus gnavus strain: ATCC29149 for biotransformation. The drug concentrations were measured before and after a 12-h incubation by liquid-chromatography-coupled mass spectrometry (LC–MS); conditions: mediterraneibacter gnavus, 2 µM
# [12] = The drug is tested on Dorea formicigenerans strain: ATCC27755 for biotransformation. The drug concentrations were measured before and after a 12-h incubation by liquid-chromatography-coupled mass spectrometry (LC–MS); conditions: 2 µM
# [13] = The drug is tested on Ruminococcus lactaris strain: ATCC29176 for biotransformation. The drug concentrations were measured before and after a 12-h incubation by liquid-chromatography-coupled mass spectrometry (LC–MS); conditions: 2 µM
# [14] = The drug is tested on Alistipes indistinctus strain: DSM22520 for biotransformation. The drug concentrations were measured before and after a 12-h incubation by liquid-chromatography-coupled mass spectrometry (LC–MS); conditions: 2 µM
# [15] = bifidobacterium adolescentis, 12 h, 2 µM
# Description: The drug is tested on Bifidobacterium adolescentis strain: ATCC 15703 for biotransformation. The drug concentrations were measured before and after a 12-h incubation by liquid-chromatography-coupled mass spectrometry (LC–MS)
# [16] = The drug is tested on Bacteroides coprophilus strain: DSM18228 for biotransformation. The drug concentrations were measured before and after a 12-h incubation by liquid-chromatography-coupled mass spectrometry (LC–MS); conditions: 2 µM
# [17] = The drug is tested on Bacteroides fragilis strain: HMW615 for biotransformation. The drug concentrations were measured before and after a 12-h incubation by liquid-chromatography-coupled mass spectrometry (LC–MS); conditions: 2 µM
# [18] = The drug is tested on Bifidobacterium breve strain: DSM20213 for biotransformation. The drug concentrations were measured before and after a 12-h incubation by liquid-chromatography-coupled mass spectrometry (LC–MS); conditions: 2 µM
# [19] = bacteroides intestinalis, 12 h, 2 µM
# Description: The drug is tested on Bacteroides intestinalis strain: DSM17393 for biotransformation. The drug concentrations were measured before and after a 12-h incubation by liquid-chromatography-coupled mass spectrometry (LC–MS)
# [20] = The drug is tested on Bacteroides xylanisolvens strain: DSM18836 for biotransformation. The drug concentrations were measured before and after a 12-h incubation by liquid-chromatography-coupled mass spectrometry (LC–MS); conditions: 2 µM
SMILES,Bacterial Biotransformation [1],Bacterial Biotransformation [2],Bacterial Biotransformation [3],Bacterial Biotransformation [4],Bacterial Biotransformation [5],Bacterial Biotransformation [6],Bacterial Biotransformation [7],Bacterial Biotransformation [8],Bacterial Biotransformation [9],Bacterial Biotransformation [10],Bacterial Biotransformation [11],Bacterial Biotransformation [12],Bacterial Biotransformation [13],Bacterial Biotransformation [14],Bacterial Biotransformation [15],Bacterial Biotransformation [16],Bacterial Biotransformation [17],Bacterial Biotransformation [18],Bacterial Biotransformation [19],Bacterial Biotransformation [20]
CC(Oc1c(Cl)cccc1Cl)C1=NCCN1 (stereo not given) [LOFEXIDINE],Compound NOT metabolized,Compound metabolized,Compound metabolized,Compound metabolized,Compound metabolized,Compound metabolized,Compound metabolized,Compound metabolized,Compound metabolized,Compound metabolized,Compound metabolized,Compound metabolized,Compound metabolized,Compound metabolized,Compound metabolized,Compound metabolized,Compound NOT metabolized,Compound metabolized,Compound metabolized,Compound NOT metabolized
C[C@@H]1CC[C@H]2[C@@H](C)C(=O)O[C@@H]3O[C@@]4(C)CC[C@@H]1[C@]32OO4 [ARTEMISININ],Compound metabolized,Compound metabolized,Compound metabolized,Compound metabolized,Compound metabolized,Compound metabolized,Compound metabolized,Compound metabolized,Compound metabolized,Compound metabolized,Compound metabolized,Compound metabolized,Compound metabolized,Compound metabolized,Compound metabolized,Compound metabolized,Compound metabolized,Compound metabolized,Compound metabolized,Compound metabolized
CC(=O)OCC(=O)NCCCOc1cccc(CN2CCCCC2)c1 [ROXATIDINE ACETATE],Compound metabolized,Compound NOT metabolized,Compound metabolized,Compound metabolized,Compound metabolized,Compound metabolized,Compound metabolized,Compound metabolized,Compound metabolized,Compound metabolized,Compound NOT metabolized,Compound metabolized,Compound metabolized,Compound metabolized,Compound metabolized,Compound metabolized,Compound metabolized,Compound metabolized,Compound metabolized,Compound metabolized
CNC(=C[N+](=O)[O-])NCCSCc1csc(CN(C)C)n1 [NIZATIDINE],Compound NOT metabolized,Compound metabolized,Compound metabolized,Compound metabolized,Compound NOT metabolized,Compound metabolized,Compound NOT metabolized,Compound metabolized,Compound NOT metabolized,Compound NOT metabolized,Compound metabolized,Compound metabolized,Compound metabolized,Compound metabolized,Compound metabolized,Compound NOT metabolized,Compound metabolized,Compound metabolized,Compound metabolized,Compound metabolized
COc1ccc2c(c1OC)C(=O)O[C@@H]2[C@H]1c2c(cc3c(c2OC)OCO3)CCN1C [NOSCAPINE],Compound metabolized,Compound metabolized,Compound metabolized,Compound metabolized,Compound metabolized,Compound metabolized,Compound metabolized,Compound metabolized,Compound metabolized,Compound NOT metabolized,Compound NOT metabolized,Compound metabolized,Compound metabolized,Compound metabolized,Compound NOT metabolized,Compound metabolized,Compound NOT metabolized,Compound metabolized,Compound metabolized,Compound metabolized
CCN1CCCC1CNC(=O)c1cc(S(=O)(=O)CC)c(N)cc1OC (stereo not given) [AMISULPRIDE],Compound NOT metabolized,Compound NOT metabolized,Compound NOT metabolized,Compound NOT metabolized,Compound NOT metabolized,Compound NOT metabolized,Compound NOT metabolized,Compound NOT metabolized,Compound NOT metabolized,Compound NOT metabolized,Compound NOT metabolized,Compound NOT metabolized,Compound NOT metabolized,Compound NOT metabolized,Compound NOT metabolized,Compound NOT metabolized,Compound NOT metabolized,Compound NOT metabolized,Compound NOT metabolized,Compound NOT metabolized
